Laboratory results: patent publication US4563527A, “Amidine compounds” (Torii & Co., Ltd., priority 1984, dated 1986)
Like-named read-outs stand apart in the source and are kept apart here.

Assays:
Trypsin = molecular target: T1, Trypsin (Bos taurus, UniProt P00760); assay: Anti-trypsin activity (hydrolysis of TAME); type: biochemical; conditions: molar concentration inhibiting 50% of TAME hydrolysis; read-out: ID50 trypsin
T1 sequence (P00760 24-246): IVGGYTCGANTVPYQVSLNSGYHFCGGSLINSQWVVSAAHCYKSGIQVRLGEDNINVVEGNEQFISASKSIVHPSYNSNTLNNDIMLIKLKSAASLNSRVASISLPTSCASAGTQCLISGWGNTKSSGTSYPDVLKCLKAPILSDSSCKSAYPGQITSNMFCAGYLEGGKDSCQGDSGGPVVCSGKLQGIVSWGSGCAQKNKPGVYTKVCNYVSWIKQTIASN
Method: (§1) The anti-trypsin, anti-plasmin, anti-kallikrein and anti-thrombin activities were determined according to the method of Muramatsu et al. [M. Muramatus, T. Onishi, S. Makino, Y. Hayashi and S. Fujii, J. of Biochem., 58, 214 (1965)]. The data summarized in Table 1 are expressed in terms of molar concentration (ID50) of the test compound which inhibits 50% of the activity of each enzyme to hydrolyze TAME (tosylalginine methyl ester). The compound No. corresponds to the compound number shown in Examples.

Plasmin = Plasmin (Homo sapiens, UniProt P00747); assay: Anti-plasmin activity (hydrolysis of TAME); type: biochemical; conditions: for IC50: molar concentration inhibiting 50% of TAME hydrolysis, read-out: ID50 plasmin
Sequence of Plasmin (P00747 581-810 limits assumed, species assumed): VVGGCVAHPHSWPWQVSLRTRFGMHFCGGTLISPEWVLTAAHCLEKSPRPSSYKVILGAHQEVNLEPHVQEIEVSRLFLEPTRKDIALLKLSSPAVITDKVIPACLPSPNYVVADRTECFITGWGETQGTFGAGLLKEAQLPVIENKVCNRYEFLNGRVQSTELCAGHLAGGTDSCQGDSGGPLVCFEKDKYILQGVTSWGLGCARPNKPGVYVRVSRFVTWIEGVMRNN
Sequence of Plasmin (P00747 97-580 partner limits assumed, species assumed): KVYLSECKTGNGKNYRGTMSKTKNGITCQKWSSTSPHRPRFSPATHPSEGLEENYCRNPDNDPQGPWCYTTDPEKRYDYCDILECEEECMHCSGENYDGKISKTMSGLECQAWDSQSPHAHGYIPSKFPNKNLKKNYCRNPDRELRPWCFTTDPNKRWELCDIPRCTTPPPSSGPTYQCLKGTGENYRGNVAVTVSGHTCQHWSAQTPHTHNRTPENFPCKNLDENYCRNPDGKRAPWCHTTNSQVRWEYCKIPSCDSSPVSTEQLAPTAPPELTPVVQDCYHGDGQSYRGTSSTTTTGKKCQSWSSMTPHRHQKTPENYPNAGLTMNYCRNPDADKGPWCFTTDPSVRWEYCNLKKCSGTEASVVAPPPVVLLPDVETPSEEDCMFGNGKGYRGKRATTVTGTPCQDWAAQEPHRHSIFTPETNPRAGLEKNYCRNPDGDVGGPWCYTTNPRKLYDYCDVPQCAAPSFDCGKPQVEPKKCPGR
Method: The anti-trypsin, anti-plasmin, anti-kallikrein and anti-thrombin activities were determined according to the method of Muramatsu et al. [M. Muramatus, T. Onishi, S. Makino, Y. Hayashi and S. Fujii, J. of Biochem., 58, 214 (1965)]. […] The compound No. corresponds to the compound number shown in Examples.

Thrombin = Thrombin (Homo sapiens, UniProt P00734); assay: biochemical; conditions: molar concentration inhibiting 50% of TAME hydrolysis; read-out: ID50 thrombin
C1r = molecular target: T2, C1r (Homo sapiens, UniProt P00736); assay: biochemical; conditions: read-out: ID50 C1r (Anti-C1 activity)
T2 sequence (P00736 464-705 limits assumed): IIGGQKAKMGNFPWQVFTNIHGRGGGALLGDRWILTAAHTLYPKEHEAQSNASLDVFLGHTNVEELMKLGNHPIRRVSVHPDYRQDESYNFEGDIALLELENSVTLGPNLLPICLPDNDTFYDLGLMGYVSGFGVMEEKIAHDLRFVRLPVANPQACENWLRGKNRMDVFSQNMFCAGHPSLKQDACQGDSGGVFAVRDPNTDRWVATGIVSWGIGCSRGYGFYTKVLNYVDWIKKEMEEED
T2 sequence (P00736 18-463 partner limits assumed): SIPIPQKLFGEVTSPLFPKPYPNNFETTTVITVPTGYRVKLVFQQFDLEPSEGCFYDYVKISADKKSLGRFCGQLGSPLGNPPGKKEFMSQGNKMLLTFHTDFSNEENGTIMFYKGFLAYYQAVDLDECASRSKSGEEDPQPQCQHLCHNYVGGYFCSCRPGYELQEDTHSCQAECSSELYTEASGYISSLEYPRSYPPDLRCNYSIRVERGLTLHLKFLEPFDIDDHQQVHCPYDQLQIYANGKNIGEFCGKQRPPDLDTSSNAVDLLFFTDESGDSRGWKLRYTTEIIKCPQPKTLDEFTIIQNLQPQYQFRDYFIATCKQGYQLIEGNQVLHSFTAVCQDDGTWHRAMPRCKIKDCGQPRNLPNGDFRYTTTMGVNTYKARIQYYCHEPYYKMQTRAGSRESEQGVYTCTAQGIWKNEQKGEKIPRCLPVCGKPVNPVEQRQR

C1s = molecular target: T3, C1s (Homo sapiens, UniProt P09871); assay: Anti-C1s activity (hydrolysis of ATEE); type: biochemical; conditions: molar concentration inhibiting 50% of ATEE hydrolysis; read-out: ID50 C1s (Anti-C1 activity)
T3 sequence (P09871 438-688 limits assumed): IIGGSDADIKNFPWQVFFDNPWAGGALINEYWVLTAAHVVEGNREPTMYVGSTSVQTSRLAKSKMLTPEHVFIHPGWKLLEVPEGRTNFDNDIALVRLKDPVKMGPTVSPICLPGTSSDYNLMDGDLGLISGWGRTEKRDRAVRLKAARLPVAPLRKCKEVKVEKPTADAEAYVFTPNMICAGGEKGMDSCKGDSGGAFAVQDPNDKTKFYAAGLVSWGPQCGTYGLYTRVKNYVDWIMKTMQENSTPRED
T3 sequence (P09871 16-437 partner limits assumed): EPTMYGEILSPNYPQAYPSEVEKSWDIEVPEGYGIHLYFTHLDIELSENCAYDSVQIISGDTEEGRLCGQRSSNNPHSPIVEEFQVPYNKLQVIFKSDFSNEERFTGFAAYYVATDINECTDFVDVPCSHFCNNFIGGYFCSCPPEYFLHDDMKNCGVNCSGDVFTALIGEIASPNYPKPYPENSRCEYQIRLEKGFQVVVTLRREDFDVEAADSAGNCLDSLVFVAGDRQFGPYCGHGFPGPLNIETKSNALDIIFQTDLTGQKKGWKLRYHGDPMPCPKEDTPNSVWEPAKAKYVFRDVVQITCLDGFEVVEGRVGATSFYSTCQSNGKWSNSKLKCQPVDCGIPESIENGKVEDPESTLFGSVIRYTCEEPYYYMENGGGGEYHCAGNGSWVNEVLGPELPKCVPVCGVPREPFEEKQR
Method: The anti-C1 esterase (C1r, C1s) activity was determined according to the method of Okamura et al. [K. Okamura, M. Muramatsu and B. Fujii, Biochem. Biophys. Acta, 295, 252-257 (1973)]. The inhibition of complement mediated hemolysis was determined according to the method of Baker et al. [B. R. Baker and E. H. Erickson, J. Med. Chem. 12, 408-414 (1969)]. The figures in Table 2 have the following meanings:
C1s: Molar concentration of the test compound which inhibits 50% of the ability of C1s to hydrolyse ATEE (acetyltyrosin ethyl ester) (ID50).

complement = assay: Inhibition of complement mediated hemolysis; type: cell-based
Method: The complement mediated hemolysis is widely used as a means to determine the titration of complement. The principle of this method is based on the fact that hemolysis is caused by the activation of complement, when the latter is added to a complex (immune complex) of erythrocytes and the antibody thereof. The degree of hemolysis varies in proportion to the amount of complement added. Therefore, when a known amount of complement admixed with a C1 esterase inhibitor is used, the hemolysis must be suppressed in proportion to the inhibitory activity.
The anti-C1 esterase (C1r, C1s) activity was determined according to the method of Okamura et al. [K. Okamura, M. Muramatsu and B. Fujii, Biochem. Biophys. […] The figures in Table 2 have the following meanings: […]

Kallikrein = assay: Anti-kallikrein activity (hydrolysis of TAME); type: biochemical; conditions: for IC50: molar concentration inhibiting 50% of TAME hydrolysis, read-out: ID50 kallikrein
Method: as §1

[1] = molar concentration inhibiting 50% of AAME hydrolysis

SMILES	IC50 (Trypsin) [nM]	IC50 (Plasmin) [nM]	IC50 (Thrombin) [nM]	IC50 (C1r; [1]) [nM]	IC50 (C1s) [nM]	Inhibition of complement mediated hemolysis (%) (complement; 1 × 10^-5)	Inhibition of complement mediated hemolysis (%) (complement; 1 × 10^-6)	Inhibition of complement mediated hemolysis (%) (complement; 1 × 10^-7)	IC50 (Kallikrein) [nM]	inhibition at 10 µM (Plasmin; figure in parentheses, at 1×10^-5 M, TAME, read-out: percentage inhibition of plasmin) [%]	percentage inhibition of kallikrein (Kallikrein; figure in parentheses, at 1×10^-5 M, TAME) [%]	IC50 (C1r) [nM]
CN=C(NC)NCc1ccc(C(=O)Oc2ccc3cc(C(=N)N)ccc3c2)o1 [Compound No. 2, 6-amidino-2-naphthyl 5-(2,3-dimethyl)guanidinomethyl-furan-2-carboxylate]	2000	800	900	1000	1000	100	100	91	–	–	–	–
N=C(N)Nc1ccc(C(=O)Oc2ccc3cc(C(=N)N)ccc3c2)o1 [Compound No. 3]	100	500	300	700	300	100	100	99	900	–	–	–
CN(C(=N)N)c1ccc(C(=O)Oc2ccc3cc(C(=N)N)ccc3c2)o1 [compound 4]	4000	–	8000	2000	300	100	100	59	6000	42	–	–
CNC(=N)Nc1ccc(C(=O)Oc2ccc3cc(C(=N)N)ccc3c2)o1 [compound 5]	300	500	200	1000	300	100	100	96	500	–	–	–
CNC(=N)NCc1ccc(C(=O)Oc2ccc3cc(C(=N)N)ccc3c2)o1 [compound 6]	4000	3000	2000	500	1000	100	100	100	400	–	–	–
CCNC(=NC)NCc1ccc(C(=O)Oc2ccc3cc(C(=N)N)ccc3c2)o1 [compound 7]	2000	700	2000	1000	2000	100	100	98	400	–	–	–
CCN=C(NCC)NCc1ccc(C(=O)Oc2ccc3cc(C(=N)N)ccc3c2)o1 [compound 8]	2000	800	1000	800	2000	100	100	98	400	–	–	–
N=C(N)NCCc1ccc(C(=O)Oc2ccc3cc(C(=N)N)ccc3c2)o1 [compound 9]	900	6000	1000	400	3000	100	100	94	–	–	47	–
N=C(N)c1ccc2cc(OC(=O)c3ccc(NC4=NCCN4)o3)ccc2c1 [compound 10]	40	3000	200	5000	300	100	100	91	400	–	–	–
N=C(N)c1ccc2cc(OC(=O)c3ccc(CNC4=NCCN4)o3)ccc2c1 [compound 11]	3000	2000	400	500	500	100	100	43	400	–	–	–
CN(C)CC(=O)NCc1ccc(C(=O)Oc2ccc3cc(C(=N)N)ccc3c2)o1 [compound 14]	1000	2000	700	700	300	100	100	28	500	–	–	–
N=C(N)Nc1ccc(C(=O)NCc2ccc(C(=O)Oc3ccc4cc(C(=N)N)ccc4c3)o2)cc1 [compound 15]	200	300	600	–	400	100	100	99	400	–	–	300
N=C(N)c1ccc2cc(OC(=O)c3ccc(CNC(=O)CCNC(=O)OCc4ccccc4)o3)ccc2c1 [compound 20]	–	–	–	–	–	100	98	43	–	–	–	–
N=C(N)c1ccc2cc(OC(=O)c3ccc(CNC(=O)CCN)o3)ccc2c1 [compound 34]	–	2000	500	500	500	100	100	58	300	–	–	–
